Measurements: paper PMC10319809, “Chronic UCN2 treatment desensitizes CRHR2 and improves insulin sensitivity” (Nature Communications, 2023)
Where no end group is shown, it is not given here.

Tests used:
[1] = biological target: T1, CRHR2 alpha (Homo sapiens, UniProt Q13324); test: HTRF cAMP assay in HEK-TREX-CRHR2 alpha cells, with or without UCN2 pre-treatment; type: cell-based; conditions: n = 3
T1 construct: host or cells: HEK-TREX-CRHR2 alpha cells, non-induced
T1 sequence (Q13324 1-411): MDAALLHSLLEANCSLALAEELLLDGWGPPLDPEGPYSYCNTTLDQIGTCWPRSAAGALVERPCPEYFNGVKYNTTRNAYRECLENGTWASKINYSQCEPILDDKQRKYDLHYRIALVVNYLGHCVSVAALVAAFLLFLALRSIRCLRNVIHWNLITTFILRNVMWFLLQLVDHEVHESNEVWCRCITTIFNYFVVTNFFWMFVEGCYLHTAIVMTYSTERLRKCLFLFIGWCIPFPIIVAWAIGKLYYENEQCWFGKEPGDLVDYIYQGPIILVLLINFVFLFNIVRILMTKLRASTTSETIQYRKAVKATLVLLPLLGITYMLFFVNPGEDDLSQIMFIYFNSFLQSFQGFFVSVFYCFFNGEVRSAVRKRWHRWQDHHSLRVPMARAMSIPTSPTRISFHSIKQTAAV
Procedure: To determine whether CRHR2 functional desensitization in response to UCN2 occurred tissue-autonomously, we turned to CRHR2-transfected HEK 293 cells.
To measure cell-based CRHR2 agonist activity a HTRF (Homogenous Time-Resolved Fluorescence) cAMP detection kit (Cisbio cAMP dynamic 2 assay kit) was performed in non-induced HEK-TREX-CRHR2 alpha cells (Fisher Scientific). Cells were plated one day before the assay in 384-well plates at 1500 cells/well and assayed in adherent mode by removing the media, patting on paper towel and adding 10 µl of 1 µM of UCN2 or vehicle control for 1 h. Cells were gently washed 3 times with wash buffer and rested for 6 h in incubator. Following rest, cells were restimulated with titrating concentrations of UCN2 with IBMX, at a final concentration of 250 µM. Reactions continued for 30 min at 37 °C followed by addition of detection reagents and a one-hour minimum incubation at room temperature. HTRF, a competitive immunoassay, produces a fluorescence signal read with an Envision multi-plate reader using an excitation of 330 nm and emissions of 615 and 665 nm. By interpolation from a cAMP standard curve, raw data were converted to nm cAMP and then expressed as percent effect of 1 µM UCN2 in vehicle control pretreatment conditions.

[2] = system: WT animals; test: Blood glucose and plasma insulin 15 min after intraperitoneal UCN2; type: in vivo, mouse; conditions: 1 mg/kg IP, 15 min post-dose; n = 5
Procedure: WT animals were injected IP with 1 mg/kg recombinant UCN2 or an equivalent volume of saline. Blood glucose and plasma insulin measurements were made pre-injection and 15 min post-dose. 20 min after the injection animals were euthanized and gastrocnemius muscle was dissected and snap-frozen in liquid nitrogen. The tissue was pulverized and homogenized in 700 ul SDS-buffer (0.1 M Tris/HCl 7.6, 4% SDS, 0.1 mM DTT), heated for 5 min at 95 °C and sonicated (Bioruptor®Plus Diagenode, 30 sec on-30sec off cycle for 10 cycles). After centrifugation for 10 min at 10,000 x g at 15 °C, the proteins in the supernatant were precipitated with 4X (volumes) ice-cold acetone (−20 °C) and stored at −20 °C overnight. The precipitates were centrifuged for 15 min at 10,000 × g, acetone was decanted, and the resulting pellets were dried for 10 min at room temperature. The pellet was resuspended in 500ul denaturing buffer (8 M urea and 10 mM Tris, pH 8.5) and sonicated (Bioruptor®Plus Diagenode, 30 s on-30 s off cycle for 5 cycles). The protein concentration was determined with a Bradford assay (Bio-Rad, Hercules, CA, USA). The proteins were reduced with dithiothreitol (DTT) 5 mM final concentration for 60 min at 37 °C and alkylated with iodoacetamide (8 mM final concentration) for 45 min at RT in the dark. […]

## IVLSLDVPIGLLQILLEQARARAAREQATTNARILARVGHC-NH2 (C-terminus assumed) [UCN2, Urocortin 2]
[1]; 1 µM UCN2 for 1 h, wash, 6 h rest, restimulation
  cAMP response to subsequent UCN2 after UCN2 pre-treatment: significantly blunts the cAMP activation response
[1]; CRHR2-transfected HEK 293 cells, 30 min at 37 °C, IBMX 250 µM
  cAMP response to increasing concentrations: increases in a dose-dependent manner
[2]
  blood glucose levels after injection: significantly increased blood glucose levels
  plasma insulin after injection: no significant difference
